What all share (assay): In vitro antibacterial activity, two-fold agar-plate dilution method (MIC)
What all share (format): cell-based

For one test, the system named is P. aeruginosa 2. To be noted: Pseudomonas aeruginosa, heart infusion agar, 10^6 viable cells per ml, 37°C for 20 hours. How it is done:
(§1) In vitro antibacterial activity was determined by the two-fold agar-plate dilution method as described below. One loopful of an overnight culture of each test strain in Trypticase-soy broth (10^6 viable cells per ml) was streaked on heart infusion agar (HI-agar) containing graded concentrations of representative test compound, and the minimal inhibitory concentration (MIC) was expressed in terms of µg/ml after incubation at 37°C for 20 hours.

Another test has as its system E. coli 31. The settings on record: Escherichia coli, heart infusion agar, 10^6 viable cells per ml, 37°C for 20 hours. How it is done: as §1
The test system of another test is S. aureus 2538. To be noted: Staphylococcus aureus, heart infusion agar, 10^6 viable cells per ml, 37°C for 20 hours. How it is done:
as §1

The results in this text go back to patent EP0674645B1, “CEPHEM COMPOUNDS WITH ANTIMICROBIAL ACTIVITY” (FUJISAWA PHARMACEUTICAL CO., LTD., priority 1992, dated 1994).

The structures appear in SMILES notation. Counter-ions that a name gives are not always drawn.

`CCO/N=C(\C(=O)N[C@@H]1C(=O)N2C(C(=O)[O-])=C(C[n+]3ccc(N)n3CCO)CS[C@H]12)c1nsc(N)n1` [7β-[2-(5-Amino-1,2,4-thiadiazol-3-yl)-2-ethoxyiminoacetamido]-3-[3-amino-2-(2-hydroxyethyl)-1-pyrazolio]methyl-3-cephem-4-carboxylate hydrochloride (syn isomer)]: the MIC in the test with P. aeruginosa 2 is 0.39 µg/mL; with E. coli 31, at most 0.025 µg/mL; against S. aureus 2538 it was 3.13 µg/mL.
